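Cultured in 96-well plates, cells were exposed to test compound for 48 hours across five concentrations. At the TGI there is no net growth.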
Tests used:
Experiment in all cases: growth of human tumour cells (NCI), 48 h
786-0 renal = system: 786-0 renal
ACHN renal = system: ACHN renal
HCT-116 colon = system: HCT-116 colon
HOP-92 NSCLC = system: HOP-92 NSCLC
HS 578T breast = system: HS 578T breast
HT29 colon = system: HT29 colon
KM12 colon = system: KM12 colon
MDA-MB-231 breast = system: MDA-MB-231 breast
OVCAR-4 ovarian = system: OVCAR-4 ovarian
PC-3 prostate = system: PC-3 prostate
RXF 393 renal = system: RXF 393 renal
SF-268 CNS = system: SF-268 CNS
SN12C renal = system: SN12C renal
SNB-19 CNS = system: SNB-19 CNS
SR leukemia = system: SR leukemia
SW-620 colon = system: SW-620 colon
T-47D breast = system: T-47D breast
TK-10 renal = system: TK-10 renal
U251 CNS = system: U251 CNS

Structure (SMILES) | TGI (786-0 renal) [µM] | TGI (ACHN renal) [µM] | TGI (HCT-116 colon) [µM] | TGI (HOP-92 NSCLC) [µM] | TGI (HS 578T breast) [µM] | TGI (HT29 colon) [µM] | TGI (KM12 colon) [µM] | TGI (MDA-MB-231 breast) [µM] | TGI (OVCAR-4 ovarian) [µM] | TGI (PC-3 prostate) [µM] | TGI (RXF 393 renal) [µM] | TGI (SF-268 CNS) [µM] | TGI (SN12C renal) [µM] | TGI (SNB-19 CNS) [µM] | TGI (SR leukemia) [µM] | TGI (SW-620 colon) [µM] | TGI (T-47D breast) [µM] | TGI (TK-10 renal) [µM] | TGI (U251 CNS) [µM]
COCCCNc1c2ccccc2nc2ccccc12 | 17.9 | 2.39 | 15.7 | 12.5 | 9.32 | 51.8 | 24.6 | 12.5 | 20.6 | 5.68 | 14.2 | 16.8 | 15.1 | 6.41 | 12.1 | 12.6 | 6.89 | 89.8 | –
CC(=O)OCC1OC(O[C@H]2C=C[C@@H](C(=O)OCc3ccccc3)n3c(=O)n(-c4ccccc4)c(=O)n32)C(OC(C)=O)C(OC(C)=O)C1OC(C)=O (stereo partly drawn) | 4.51 | 3.09 | – | 3.9 | 4.55 | 3.49 | 12.2 | 4.12 | 6.89 | 13 | 4.07 | 4.23 | 3.88 | 30.1 | 5.92 | 17 | 8.33 | 3.92 | 4.81
COc1ccc(C=O)cc1OS(=O)(=O)C(F)(F)C(F)(F)C(F)(F)C(F)(F)F | > 84.1 | > 100 | > 70.4 | 58.6 | 68.8 | > 90.5 | > 74.4 | > 70.3 | > 100 | > 100 | 59.8 | > 100 | 97.5 | > 100 | > 24.4 | > 87.4 | > 100 | > 82.9 | 66.5
C#CCn1c(=O)ccn(/C(=C/C(=O)OCC)C(=O)OCC)c1=O | 32.5 | 3.21 | 18.7 | 6.32 | 43.5 | 5.64 | 33.8 | 40.9 | 17.8 | 28.1 | 3.3 | 26.9 | 29.5 | 40.7 | > 100 | – | 14.1 | 3.68 | 35.4
CC/C=C\C=C/C(=O)N/C=C/CCC | > 100 | > 100 | > 100 | > 100 | > 100 | > 100 | > 100 | > 100 | > 100 | > 100 | > 100 | > 100 | > 100 | > 100 | > 100 | > 100 | > 100 | > 100 | > 100
NC1NCCC(=O)N1CCc1c[nH]c2ccccc12 (stereo not drawn) | 37.6 | 55.5 | 26.5 | 69.5 | 55.2 | 82.9 | 29.8 | 34.4 | 80.7 | 44.1 | 43.5 | 46.4 | 67.6 | > 100 | 57.7 | 42 | > 100 | 51.7 | > 100
CN(Cc1cnc2nc(N)nc(N)c2n1)c1ccc(C(=O)NCCCC(=O)O)cc1 | > 100 | > 71.2 | > 100 | > 100 | > 100 | > 100 | > 100 | > 100 | > 100 | > 100 | > 100 | > 100 | > 100 | > 100 | > 100 | > 100 | > 100 | > 100 | > 100
CN(C)CC(C)(C)CN1c2ccccc2Sc2ccccc21 | 25.5 | 28.3 | 26.7 | 24.1 | 28.5 | 22.6 | 25.8 | 24.3 | 26.5 | 25.5 | 13 | 27.5 | 25.9 | 29.5 | 23.4 | 28.3 | 29.3 | 26.9 | 26.4
O=C(Nc1ccc(Cl)cc1)c1cc(S(=O)(=O)N2CCNNC2=O)c(S)cc1Cl | > 100 | > 100 | > 100 | 96.1 | > 100 | – | > 100 | > 100 | > 100 | > 100 | 53.2 | > 100 | > 100 | > 100 | > 100 | > 100 | > 100 | > 100 | > 100
O=C(CC(C(=O)c1cccs1)c1ccc2c(c1)OCO2)c1ccccc1 (stereo not drawn) | > 100 | > 100 | > 100 | > 100 | > 100 | > 100 | > 100 | > 100 | > 100 | > 100 | > 100 | > 100 | > 100 | > 100 | > 100 | > 100 | > 100 | > 100 | > 100
Cn1c(=O)cc(Nc2ccc(N)cc2)[nH]c1=O | > 100 | > 100 | > 100 | > 100 | > 100 | > 100 | > 100 | > 100 | > 100 | > 100 | > 100 | > 100 | > 100 | > 100 | > 100 | > 100 | > 100 | > 100 | > 100
CC(C)C(/C=C/c1ccc(Cl)cc1)=N\NC(=O)N/N=C(/C=C/c1ccc(Cl)cc1)C(C)C | 33.5 | 87.3 | 39 | 56.9 | 50.8 | > 100 | > 100 | 49.4 | 36 | > 100 | 76.9 | 41.3 | 33.7 | 38.8 | 80.7 | > 100 | > 100 | 51.3 | 30.6
CN1CCc2c(sc3ncn(Nc4ccc(F)cc4)c(=N)c23)C1 | > 100 | > 100 | > 100 | > 100 | > 100 | > 100 | > 100 | > 100 | > 100 | > 100 | > 100 | > 100 | > 100 | > 100 | > 100 | > 100 | > 100 | > 100 | > 100
C[C@@H](c1ccccc1)N1CO[C@@]2(C#Cc3ccc4c(c3)OCO4)CCC[C@@H]12 | 36 | > 100 | 29.1 | 19.7 | 33.4 | 34.6 | 34.7 | 28.2 | 28.4 | 27.1 | 24.4 | – | 33.3 | 30.3 | 32.5 | – | 34 | 28.8 | 28.1
c1cc(CSc2ncnc3nc[nH]c23)ccn1 | > 100 | > 100 | > 100 | > 100 | > 100 | > 100 | > 100 | > 100 | > 100 | > 100 | > 100 | > 100 | > 100 | > 100 | > 100 | > 100 | > 100 | > 100 | > 100
O=C(/C=C/c1cccc(Br)c1)N1CCN(CCOC(c2ccccc2)c2ccccc2)CC1 | > 100 | > 100 | > 100 | 99.1 | > 100 | 81.5 | > 100 | > 100 | > 100 | > 100 | > 100 | > 100 | > 100 | > 100 | 38.4 | > 100 | 82.9 | > 100 | > 100
Cc1cccc(N=N/C(=N\NC(=O)c2cc(Cl)ccc2O)c2ccc(N(CCC#N)CCC#N)cc2C)c1 | > 100 | > 100 | > 100 | 60.7 | > 100 | 74 | 87.7 | 58.6 | 76.3 | > 100 | 97.3 | > 100 | 69 | > 100 | 52.4 | > 100 | 59.6 | 76.9 | > 100
C[C@@H]1CC[C@@]2(C)[C@H](C)/C(=C\COC(=O)/C=C/c3ccc(O)c(O)c3)CC[C@@]12C | 17.6 | 16.6 | 14 | 29.7 | 32.8 | 25.1 | 15.9 | 20.5 | 19 | 17.4 | 39.1 | 23.5 | 17.1 | 27.8 | 6.93 | 23.6 | 34.7 | 11.5 | 17.8
Cn1c(=S)[nH]c(N)c(Cc2ccccc2)c1=O | > 100 | > 100 | > 100 | 97.1 | > 100 | > 100 | > 100 | > 100 | > 100 | > 100 | > 100 | > 100 | > 100 | > 100 | > 100 | > 100 | > 100 | > 100 | > 100
CC(C)[Si](Oc1ccc(CC2N(C(=O)c3ccc([N+](=O)[O-])cc3)C(CCc3ccccc3)CC2(C)C=O)cc1)(C(C)C)C(C)C (stereo not drawn) | > 100 | > 100 | – | 82.8 | > 100 | – | – | 95.5 | > 100 | > 100 | 28.2 | 54.8 | – | 59.4 | > 100 | – | > 100 | > 100 | > 100
O=C(NC(OCc1ccccc1)(C(F)(F)F)C(F)(F)F)OCc1ccccc1 | 30.1 | 29.2 | 29.9 | 27.8 | 31.3 | 32.2 | 30.2 | 32.3 | – | 26.7 | 25.3 | 32.2 | 29.4 | 29.2 | 26.8 | 31.1 | 29.4 | 20.9 | 27.1
c1ccc2c(c1)-c1ccccc1C2NC1=NCCO1 | 84.5 | > 100 | 32.1 | 36.3 | > 100 | 60.6 | 33.2 | 56 | > 100 | 95.3 | > 100 | > 100 | > 100 | > 100 | 79.3 | > 100 | > 100 | 83.6 | > 100
O=C(CC(=O)N1N=C(N(c2ccccc2)c2ccccc2)CC1c1ccccc1)Nc1cccc(Cl)c1 (stereo not drawn) | > 100 | > 100 | > 100 | > 100 | > 100 | > 100 | > 100 | > 100 | > 100 | > 100 | > 100 | > 100 | > 100 | > 100 | > 100 | > 100 | > 100 | > 100 | > 100
COc1ccc2nc3cc(Cl)ccc3c(NCCCCCC(=O)NC(COc3ccc4ccc5cccnc5c4n3)COc3ccc4ccc5cccnc5c4n3)c2c1 | 28.8 | 28.9 | 23.5 | 44.1 | 73.9 | > 100 | 85.5 | 36.2 | 99.8 | 28.4 | 39.3 | 34.9 | 31.6 | > 100 | 12.3 | 33 | 40.1 | 32 | 26.7
COC(=O)C1Cc2cc3c(cc2C1)CCC3 | > 100 | > 100 | > 100 | > 100 | > 100 | > 100 | > 100 | > 100 | > 100 | > 100 | > 100 | > 100 | > 100 | > 100 | > 100 | > 100 | > 100 | > 100 | > 100

Reference: PubChem BioAssay (NCI)
